Results published in patent US6693215B2, “Process for the preparation of salts of L-carnitine and alkanoyl L-carnitine with mucic acid” (Sigma-Tau Industrie Farmaceutiche Riunite S.p.A., priority 2002, dated 2004).

Experiment: Analytical data of the compound obtained: water solubility
Format: physicochemical
Settings: product of Example 1, white powder

## CC(=O)OC(CC(=O)O)C[N+](C)(C)C.CC(=O)OC(CC(=O)O)C[N+](C)(C)C.O=C([O-])C(O)C(O)C(O)C(O)C(=O)[O-] [Example 1, acetyl L-carnitine mucate (2:1)]
  Water solubility: Poorly soluble
